Type in all cases: cell-based
Assay [1] concerns S. aureus (ATCC #6538), P. aeruginosa (ATCC #9027), and E. coli (ATCC #8739). Put plainly: Mixed bacterial challenge of preserved anionic protein shampoo (Examples 4 and 7). The settings on record: 1.0% (1%) by weight in shampoo; for S. aureus, P. aeruginosa, and E. coli Day 0: Day 0, Table 3; for S. aureus, P. aeruginosa, and E. coli Day 7: Day 7, Table 3; for S. aureus, P. aeruginosa, and E. coli Day 14: Day 14, Table 3. Here is the method:
(§1) Each anionic shampoo sample in Table 3 below was tested as follows. A standardized mixed bacterial solution was prepared according to the following procedure. 3 agar stabs of S. aureus (ATCC #6538), P. aeruginosa (ATCC #9027), and E. coli (ATCC #8739) were separately incubated at about 35 EC for about 24 hours. Each stab was then washed with 3 mL of sterile 0.85% saline solution. The washes of the 3 stabs were pooled together to form an organism mixture. The absorbance of the organism mixture at 530 nm was adjusted to about 1.00 by adding saline. The spectrometer was calibrated with a saline blank. A 5 mL aliquot of the organism mixture was mixed together to produce the standardized mixed bacterial solution. Then, 40 g of each shampoo sample was inoculated with 0.2 mL of the standardized mixed bacterial solution and mixed. 1 g of the mixture was added to a sterile 20×150 mm screw cap test tube.
9 mL of sterile D/E neutralizer broth was added to the test tube and mixed to form a 10^−1 dilution. Serial dilutions were prepared through to a 10^−6 dilution with phosphate buffered water. The serial dilutions were plated onto Tryptic Soy Agar and incubated for 2 days at about 35 EC. Bacteria counts were performed after 0, 7, and 14 days.
(§2) The anionic protein shampoo composition was comprised of 35% by weight of sodium lauryl ether sulfate; 25% by weight of triethanolamine lauryl sulfate; 3% by weight coconut diethanolamide (cocamide DEA); 1% by weight of hydrolyzed collagen, available as Polypro 5000™ from Hormel Foods of Austin, Minn.; and 36% by weight of deionized water.
The cinnamaldehyde and other preservative containing samples were prepared by mixing the appropriate amounts of the preservatives and the aforementioned anionic protein shampoo composition and heating the mixture to about 50 EC for about 15 minutes.
Synergism for the cinnamaldehyde/Glydant 2000™ solutions in Table 8 against S. aureus, P. aeruginosa, and E. coli was calculated by the method described in C. E. Kull et al., A Mixtures of Quaternary Ammonium Compounds and Long-chain Fatty Acids as Antifungal Agents@, Applied Microbiology, 9:538-541 (1961). The synergism value (QA/Qa+QB/Qb) in Table 7 was determined. […] Qa is the concentration of cinnamaldehyde alone (in percent by weight) required to yield 100% retardation of the bacteria. QB is the concentration of Glydant 2000™ (in percent by weight) in the mixture, which yielded 100% retardation of the bacteria. Qb is the concentration of Glydant 2000™ alone (in percent by weight) required to yield 100% retardation of the bacteria.
When the value of (QA/Qa+QB/Qb) is less than one, the mixture is synergistic. Values for (QA/Qa+QB/Qb) of 1 and greater than 1, represent an additive effect and an antagonistic effect, respectively.

Assay [2] shares this test system. As to the kind of experiment: Mixed bacterial challenge of preserved anionic protein shampoo, pH 6.5 (Example 3). To be noted: 0.45% w/w in shampoo; for bacteria count Day 0: pH 6.5, Day 0; for bacteria count Day 7: pH 6.5, Day 7; for bacteria count Day 14: pH 6.5, Day 14; for bacteria count Day 28: pH 6.5, Day 28. Here is the method: as §1, with “FIGS. 1-3 were” for “Table 3 below was”
9 mL of sterile D/E neutralizer broth was added to the test tube and mixed to form a 10^−1 dilution. Serial dilutions were prepared through to a 10^−6 dilution with phosphate buffered water. The serial dilutions were plated onto Tryptic Soy Agar and incubated for 2 days at about 35 EC. […]
as §2
The antimicrobial composition containing samples were prepared by mixing the appropriate amounts of the antimicrobial ingredients and the aforementioned anionic protein shampoo composition and heating the mixture to about 50 EC for about 15 minutes.
The pH of the shampoo was adjusted to 6.5. […]

The subject of assay [3] is Candida albicans and Aspergillus niger. As to the kind of experiment: Mixed fungal challenge of preserved anionic protein shampoo (Example 5). The settings on record: 1.0% in shampoo. Here is the method:
Each anionic shampoo sample in Table 4 below was tested as follows. A standard mixed […] solution was prepared according to the following procedure. 2 agar […] of Candida albicans and 4 agar […] of Aspergillus niger were separately incubated at about 25 EC for about 48 hours and 7 days, respectively. Each slant was washed with 3 mL of sterile 0.85% saline solution, collected and macerated in a tissue grinder. Sufficient amounts of 0.85% saline solution were added to each slant to obtain a visual count under a microscope with a Neubauer Hemocytometer of each innoculum of C. albicans and A. niger. Equal volumes of each standardized innoculum of C. albicans and A. niger were mixed together to form the standardized mixed fungal solution. 40 g of each shampoo sample was inoculated with 0.4 mL of the standardized mixed fungal solution and mixed. 1 g of the mixture was added to a sterile 20×150 mm screw cap test tube. 9 mL of sterile D/E neutralizer broth was added to the test tube and mixed to form a 10^-1 dilution. Serial dilutions were prepared through to a 10^-6 dilution with phosphate buffered water. The serial dilutions were plated onto Sabourand dextrose agar and incubated 5 days at about 25 EC. […] The anionic protein shampoo composition is described in Example 4. The shampoo samples were prepared by mixing the appropriate amounts of the preservatives and the anionic protein shampoo composition and heating the mixture to about 50 EC for about 15 minutes.

Assay [4] concerns Staphylococcus aureus (ATCC #6538). Put plainly: Minimum Inhibitory Concentration (MIC), autodilutor, nutrient broth, 96 well plates (Example 8). The settings on record: 72 hours at 32 degree Celsius, approximately 10^6 cfu/g, visual turbidity. Here is the method: The Minimum Inhibitory Concentration (MIC) of the preservative mixtures was tested. The MIC is the lowest concentration of an ingredient that will inhibit the growth of an organism. This study was conducted using the Hamilton Micro Lab AT Plus Autodilutor Liquid handling System. The programs for the auto-dilutor were based on Lonza's Standard Application Method SAPM#412-01-1. The Hamilton Autodilutor was used to dilute the starting concentrations of the preservative combination by 50% using nutrient broth in 96 well micro titer plates and also to inoculate the microorganism in the test samples. This preservatives tested were Isocil™ (a blend of methyl isothiazolinone and methyl-chloro-isothiazolinone), Benzocil™ (benzisothiazolinone) and Lonzagard™ (benzethonium chloride), all of which are available from Lonza Inc. of Fair Lawn, N.J., in various concentrations and combinations with cinnamaldehyde. Controls were also included in each test plate. […] Results were determined by checking for growth in the test samples versus the control wells on each plate (visual determination of turbidity in the wells). […] Synergism values for the Isocil™/cinnamaldehyde and Benzocil™/cinnamaldehyde combinations were calculated from the MIC values reported in Table 11 by the method described in Kull, supra, referred to above, and are set forth in Tables 12 and 13, below.

We go through 10 compounds from US8784910B2, “Antimicrobial compositions” (Lonza Inc., priority 2002, dated 2014).

Take `CC(C)=CCC/C(C)=C/CO` [Gerniol]: in assay [1], the “S. aureus, P. aeruginosa, and E. coli Day 0” value was 3.0 × 10^7 cfu/g; the “S. aureus, P. aeruginosa, and E. coli Day 7” value was 3.0 × 10^7 cfu/g; the “S. aureus, P. aeruginosa, and E. coli Day 14” value was 3.0 × 10^7 cfu/g.

For `C=CCc1ccc(O)c(OC)c1` [Eugenol], in assay [1], the “S. aureus, P. aeruginosa, and E. coli Day 0” value was 3.0 × 10^7 cfu/g; the “S. aureus, P. aeruginosa, and E. coli Day 7” value is 3.0 × 10^7 cfu/g; the “S. aureus, P. aeruginosa, and E. coli Day 14” value is on record as 3.0 × 10^7 cfu/g.

For `O=C1O[C@H]([C@H](O)CO)C([O-])=C1O.[Na+]` [sodium erythorbate], in assay [2], the “bacteria count Day 0” value is listed as 1-3 × 10^6 cfu/g, the “bacteria count Day 7” value is recorded as >3 × 10^6 cfu/g, the “bacteria count Day 14” value was >3 × 10^6 cfu/g and the “bacteria count Day 28” value is >3 × 10^6 cfu/g.

As to `CC(C)=CCC/C(C)=C\CO` [Nerol], in assay [1], the “S. aureus, P. aeruginosa, and E. coli Day 0” value is given as 3.0 × 10^7 cfu/g; the “S. aureus, P. aeruginosa, and E. coli Day 7” value was 3.0 × 10^7 cfu/g; the “S. aureus, P. aeruginosa, and E. coli Day 14” value was 3.0 × 10^7 cfu/g.

Regarding `C=C(C)[C@H]1CC=C(C)CC1` [d-Limonene], in assay [1], the “S. aureus, P. aeruginosa, and E. coli Day 0” value was 3.0 × 10^7 cfu/g; the “S. aureus, P. aeruginosa, and E. coli Day 7” value is on record as 3.0 × 10^7 cfu/g; the “S. aureus, P. aeruginosa, and E. coli Day 14” value was 3.0 × 10^7 cfu/g.

Turning to `C/C=C/C=C/C(=O)[O-].[K+]` [potassium sorbate], in assay [2], the “bacteria count Day 0” value is 1-3 × 10^6 cfu/g, the “bacteria count Day 7” value is on record as 1 × 10^5 cfu/g and the “bacteria count Day 14” value is listed as 6 × 10^4 cfu/g.

As for `OCc1ccccc1` [Benzyl Alcohol, reference compound], in assay [3] (Day 0), the “Fungal Plate Count Day 0” value is given as 1.0 × 10^5 cfu/g. Also, the “Fungal Plate Count Day 7” value in assay [3] (Day 7) was 6.0 × 10^3 cfu/g. For the same compound, the “Fungal Plate Count Day 14” value in assay [3] (Day 14) was 6.0 × 10^4 cfu/g. In addition, in assay [1], the “S. aureus, P. aeruginosa, and E. coli Day 0” value is reported as 3.0 × 10^7 cfu/g; the “S. aureus, P. aeruginosa, and E. coli Day 7” value is 5.0 × 10^6 cfu/g; the “S. aureus, P. aeruginosa, and E. coli Day 14” value is given as 5.3 × 10^6 cfu/g.

Consider `O=c1[nH]sc2ccccc12` [Benzocil ™, benzisothiazolinone], for which, in assay [4], the “MIC for S. Aureus” value is 9.375 ppm (active).

With `CC(C)=CCCC(C)=CC=O` [Citral], in assay [1], the “S. aureus, P. aeruginosa, and E. coli Day 0” value is reported as 3.0 × 10^7 cfu/g; the “S. aureus, P. aeruginosa, and E. coli Day 7” value was 3.0 × 10^7 cfu/g; the “S. aureus, P. aeruginosa, and E. coli Day 14” value is given as 3.0 × 10^7 cfu/g.

With `O=C([O-])c1ccccc1.[Na+]` [sodium benzoate], in assay [2], the “bacteria count Day 0” value is 1-3 × 10^6 cfu/g, the “bacteria count Day 7” value is recorded as 1 × 10^5 cfu/g, the “bacteria count Day 14” value is reported as 7 × 10^5 cfu/g and the “bacteria count Day 28” value is on record as <10 cfu/g.
